Assays:
Pyk2 [1] = target: T1, Pyk2 (Homo sapiens, UniProt Q14289); test: Pyk2 Ki of kinase inhibitors (CHEMBL & IUPHR-BPS database screen, Table 2); type: biochemical; conditions: Pyk2 versus Fyn
Pyk2 [2] = target: T1, Pyk2; conditions: read-out: Pyk2 Ki; cited from earlier work
APP/PS1 mice = conditions: cited from earlier work
[3] = test system: cultured hippocampal neurons; test: Graf1c knockdown-induced dendritic spine loss in cultured hippocampal neurons; type: cell-based, mouse; conditions: 10 μM
Description: FIGS. 17A-17B illustrate the finding that Graf1 is a functional GTPase activating protein (GAP) in mature neurons and regulates dendritic spine formation. FIG. 17A: Representative fluorescence images of cultured hippocampal neurons. […] Scale bar, 10 μm. FIG. 17B: Quantification of dendritic spine density in the transfected neurons.
Next, it was evaluated whether RhoA activity is necessary for Pyk2-induced decrease in dendritic spine density. As described elsewhere herein, overexpression of GFP-Pyk2 induces loss of half of hippocampal neuron dendritic spines (FIGS. 10E-10F). […] Therefore, Pyk2 interacts with Graf1c within dendritic spines to allow increased RhoA-GTP levels and subsequent reduced synapse density.

[4] = test system: primary hippocampal neurons; test: Dendritic spine motility in primary hippocampal neurons; type: cell-based, mouse
Description: FIG. 11A: Representative images of dendritic spine motility by standard deviation projection of time-lapse image. […] The standard deviation value for each pixel is shown by thermal color scale. […] FIG. 11B: Quantification of spine motility, expressed as % of changed area of spines with subtraction of changed area of dendritic shaft as background (changed area=(ΔAspine/Aspine×100)−(ΔAshaft/Ashaft×100)). […] Data are graphed as mean±SEM (n=7-8 coverslips from 3 different cultures). **p<0.01, ***p<0.001 by ANOVA, Tukey's multiple comparisons test.
FIG. 18A: Representative images of dendritic spine motility by standard deviation projection of time stacks. […] To display the spine motility in time-lapse images, the time stack images over 5 min of each conditions were projected to standard deviation using Image J and color coated with thermal color scale. […] FIG. 18B: Quantification of spine motility, expressed as % of changed area of spines with subtraction of dendritic shaft area change (changed area=(ΔAspine/Aspine×100)−(ΔAshaft/Ashaft×100)). Mean±SEM (n=5 coverslips).
Time-lapse images were acquired for 5 minutes with 10 second intervals in Tyrode's solution using 60× objective lens driven Volocity software. Time-lapse images (31 time frames over 5 min) were subjected to standard deviation (STD) projection to visualize spine motility in single image and colorized with thermal scale using ImageJ software (NIH). Quantitative measurements of spine motility by calculating the changed area at individual dendritic spines were conducted by using ImageJ software by an observer unaware of treatment group.

T1 sequence (Q14289 whole entry, species assumed): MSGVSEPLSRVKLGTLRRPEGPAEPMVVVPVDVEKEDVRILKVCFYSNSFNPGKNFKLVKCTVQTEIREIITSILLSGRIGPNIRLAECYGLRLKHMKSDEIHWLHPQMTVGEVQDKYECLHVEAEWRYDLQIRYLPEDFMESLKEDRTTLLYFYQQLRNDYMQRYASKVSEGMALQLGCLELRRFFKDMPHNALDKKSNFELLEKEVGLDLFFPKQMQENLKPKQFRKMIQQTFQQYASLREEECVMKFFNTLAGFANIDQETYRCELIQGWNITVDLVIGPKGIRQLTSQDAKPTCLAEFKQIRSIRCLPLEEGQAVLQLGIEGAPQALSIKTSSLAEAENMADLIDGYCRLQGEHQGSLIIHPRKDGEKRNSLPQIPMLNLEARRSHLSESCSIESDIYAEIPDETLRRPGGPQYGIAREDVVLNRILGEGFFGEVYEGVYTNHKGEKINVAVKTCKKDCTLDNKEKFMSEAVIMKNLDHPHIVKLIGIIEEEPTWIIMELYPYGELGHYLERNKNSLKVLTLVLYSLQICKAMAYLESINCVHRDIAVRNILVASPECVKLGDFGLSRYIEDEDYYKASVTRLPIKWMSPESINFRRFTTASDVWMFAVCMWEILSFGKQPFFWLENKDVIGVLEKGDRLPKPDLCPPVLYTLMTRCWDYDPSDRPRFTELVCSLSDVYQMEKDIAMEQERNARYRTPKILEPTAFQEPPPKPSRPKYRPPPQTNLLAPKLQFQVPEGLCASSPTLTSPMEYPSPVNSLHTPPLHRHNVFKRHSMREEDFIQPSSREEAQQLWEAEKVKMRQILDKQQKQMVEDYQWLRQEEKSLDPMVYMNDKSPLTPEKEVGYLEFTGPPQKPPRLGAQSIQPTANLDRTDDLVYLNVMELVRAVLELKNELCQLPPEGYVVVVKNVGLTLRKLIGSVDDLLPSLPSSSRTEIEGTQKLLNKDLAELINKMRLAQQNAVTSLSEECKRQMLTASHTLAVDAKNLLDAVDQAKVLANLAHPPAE

CN1CCN(CCOc2cc(OC3CCOCC3)c3c(Nc4c(Cl)ccc5c4OCO5)ncnc3c2)CC1 [AZD-0530, N-(5-chloro-1,3-benzodioxol-4-yl)-7-[2-(4-methyl-1-piperazinyl)ethoxy]-5-[(tetrahydro-2H-pyran-4-yl)oxy]-4-quinazolinamine]
Inhibition Character (Pyk2 [1]): Fyn selective
Ki (Pyk2 [2]): > 1000 nM
memory deficits and synapse loss in APP/PS1 mice (APP/PS1 mice; mouse, in vivo): rescuing memory deficits and synapse loss
activated p-Pyk2 level in transgenic mice (APP/PS1 mice; transgenic mice have a two-fold increase): reduces this level to that of WT mice

Cc1cc(N2CCOCC2)cc2nc(-c3c(NCC(O)c4cccc(Cl)c4)cc[nH]c3=O)[nH]c12 (centres unmarked) [Compound 5, 4-((2-(3-chlorophenyl)-2-hydroxyethyl)amino)-3-(7-methyl-5-morpholino-1H-benzo[d]imidazol-2-yl)pyridin-2(1H)-one]
Inhibition Character (Pyk2 [1]): dual Pyk2-Fyn

Cn1cc(-c2cnc(N)c3c(-c4ccc(NC(=O)Nc5ccc(OC(F)F)cc5)cc4)csc23)cn1 [Compound 6, 1-(4-(4-amino-7-(1-methyl-1H-pyrazol-4-yl)thieno[3,2-c]pyridin-3-yl)phenyl)-3-(4-(difluoromethoxy)phenyl)urea]
Inhibition Character (Pyk2 [1]): dual Pyk2-Fyn

Cc1cnc(Nc2cccc(S(N)(=O)=O)c2)nc1Nc1ccc(OCC(N)=O)cc1 [Compound 8, 2-(4-((5-methyl-2-((3-sulfamoylphenyl)amino)pyrimidin-4-yl)amino)phenoxy)acetamide]
Inhibition Character (Pyk2 [1]): dual Pyk2-Fyn

C[C@@H](N)[C@H]1CC[C@H](C(=O)Nc2ccncc2)CC1 [Compound Y27632]
Graf1c-knockdown-induced spine loss [3]: rescue Graf1c-knockdown-induced spine loss
Aβo-induced decrease in spine motility ([4]; Aβo 24 hours, PF-719 1 μM, Y27632 10 μM): rescue fully the Aβo-induced decrease in spine motility

C[C@]12O[C@H](C[C@]1(O)CO)n1c3ccccc3c3c4c(c5c6ccccc6n2c5c31)CNC4=O [Lestaurtinib, (5S,6S,8R)-6-Hydroxy-6-(hydroxymethyl)-5-methyl-7,8,14,15-tetrahydro-5H-16-oxa-4b,8a,14-triaza-5,8-methanodibenzo[b,h]cycloocta[jkl]cyclopenta[e]-as-indacen-13(6H)-one]
Inhibition Character (Pyk2 [1]): dual Pyk2-Fyn

C=C1[C@@H](C)[C@H]2[C@H](Cc3ccccc3)NC(=O)[C@]23[C@H](OC(C)=O)/C=C/[C@@](C)(O)C(=O)[C@@H](C)C/C=C/[C@H]3[C@@H]1O [cytochalasin D]
spine motility (actin dependence) ([4]; 1 μm Cytochalasin D for 20 minutes, no Aβo): near complete cessation of spine motility
